Experimental data: publication PMC2193175 (The Journal of Experimental Medicine, 2000)
Like-named read-outs stand apart in the source and are kept apart here.

Assays:
[1] = target: T1, cysteine-rich domain of the murine macrophage mannose receptor (Cys-MR) (Mus musculus, UniProt Q61830); experiment: microwell inhibition of Cys-MR-Fc binding to immobilized human lutropin
T1 sequence (Q61830 20-154): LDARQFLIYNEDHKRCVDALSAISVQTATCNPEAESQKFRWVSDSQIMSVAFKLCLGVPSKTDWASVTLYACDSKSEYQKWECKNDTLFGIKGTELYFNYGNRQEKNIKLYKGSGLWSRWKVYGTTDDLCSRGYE

[2] = target: T1, cysteine-rich domain of the murine macrophage mannose receptor (Cys-MR); experiment: as above; remark: listed apart in the source

Question: For `CC(=O)N[C@H]1C(O)O[C@H](CO)[C@H](OS(=O)(=O)O)[C@@H]1O` (some centres unmarked) [4-sulfated N-acetylgalactosamine], which IC50 [1] is on record?
Answer: Its IC50 is 180 µM.

Question: How did the IC50 [2] turn out when `CC(=O)N[C@H]1C(O)O[C@H](COS(=O)(=O)O)[C@H](O)[C@@H]1O` (some centres unmarked) [6-sulfated N-acetylgalactosamine] was run?
Answer: The IC50 was 1300 µM.
